The target of one data set is T1, CYP2C19 (Homo sapiens, UniProt P33261).
T1 construct: 0.1 mg/mL protein human liver microsomes (BD Gentest); tissue BD Gentest; host or cells: human liver microsomes
As to the kind of experiment: Cocktail CYP assay, mephenytoin 4'-hydroxylation. Format: in vitro ADME. As to conditions: human liver microsomes, 30 μM mephenytoin; test concentrations up to 10 μM.

The target in a further data set is CYP3A4 (Homo sapiens, UniProt P08684). Nature of the data set: IC50 vs CYP3A by inhibition of lopinavir metabolism in human liver microsomes. As to conditions: pH 7.4, human liver microsomes, 1.5 μM lopinavir, 8 min at 37° C., test concentrations 0.098-100 nM, read-out: 3A4(LPV). Format: biochemical. On the procedure:
Determination of IC50 vs CYP3A by Measurement of Inhibition of Lopinavir Metabolism
This assay was performed in a standard 96-well plate design. IC50 values were calculated from the percent inhibition observed for each test compound at 6 concentrations (for example, 0.098, 0.391, 1.56, 6.25, 25 and 100 nM). The incubation substrate mix contains 1.5 μM lopinavir, 0.01 mg/mL protein human liver microsomes (BD Gentest), 1 mM NAPDH, 3.3 mM MgCl2 and 100 mM potassium phosphate buffer (pH 7.4). The production of the sum of three hydroxylated metabolites (M2: 6-hydroxy lopinavir, M3: 4-hydroxy lopinavir, M4: 4-hydroxy lopinavir (epimer of M3), Kumar et al., 1999) was determined after incubation for 8 min at 37° C. Quantitation of the metabolite peak area ratio against an internal standard (tolbutamide) was determined by LC/MS/MS analysis following acetonitrile treatment of the incubations.
Samples were analyzed in the MRM mode with a SCIEX API-4000 mass spectrometer (Applied Biosystems, Foster City, Calif.), with a Shimadzu LC-20 AD pump (Shimadzu corporation, Kyoto, JP) and a CTC PAL autosampler (Agilent Technologies, Switzerland). A Phenomenex, Luna, 5 μm, 100 A, 2.00×30 mm HPLC column was used for the separation. The mobile phases were: (A) 0.1% formic acid in water and (B) 0.1% formic acid in acetonitrile. The binary gradient was as follows.
The peak area ratio of the analyte to the internal standard was used to quantify the metabolite. The values of peak area ratios in the presence of test compound were compared to those of maximum or minimum controls and were expressed as % inhibition by interpolating between the maximum and minimum peak area ratios. Incubations with no inhibitor were defined as the maxima and with 5 μM ketoconazole were defined as the minima
The following equation was used to calculate the % inhibition:
[1−[(X−Low control)/(High control−Low control)]]*100
For the IC50 calculation, SigmaPlot was used to plot the mean % inhibition versus the test compound concentrations and for non-linear regression analysis of the data. Depending on the range of data points defining the inhibition curve, the data may have been fit to the 4-parameter logistic equation.

A further data set concerns the target T2, CYP2D6 (Homo sapiens, UniProt P10635).
T2 construct: 0.1 mg/mL protein human liver microsomes (BD Gentest); tissue BD Gentest; host or cells: human liver microsomes
As to the kind of experiment: Cocktail CYP assay, dextromethorphan O-demethylation. Format: in vitro ADME. The conditions noted are these: human liver microsomes, 5 μM dextromethorphan; test concentrations up to 10 μM.

Chain of CYP3A4 (P08684 2-503): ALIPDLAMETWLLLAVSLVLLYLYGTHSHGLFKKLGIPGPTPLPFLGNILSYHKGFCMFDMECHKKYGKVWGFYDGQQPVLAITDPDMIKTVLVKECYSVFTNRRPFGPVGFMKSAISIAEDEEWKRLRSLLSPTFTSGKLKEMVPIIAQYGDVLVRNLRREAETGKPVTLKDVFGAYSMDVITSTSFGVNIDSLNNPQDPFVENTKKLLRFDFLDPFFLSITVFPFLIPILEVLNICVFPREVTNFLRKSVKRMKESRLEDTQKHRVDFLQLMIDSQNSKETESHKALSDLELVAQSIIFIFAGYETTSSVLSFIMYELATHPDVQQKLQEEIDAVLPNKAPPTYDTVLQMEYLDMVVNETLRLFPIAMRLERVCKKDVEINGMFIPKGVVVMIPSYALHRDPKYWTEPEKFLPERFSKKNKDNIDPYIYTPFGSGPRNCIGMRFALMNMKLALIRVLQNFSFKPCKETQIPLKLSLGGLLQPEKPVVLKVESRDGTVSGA
T2 sequence (P10635 whole entry): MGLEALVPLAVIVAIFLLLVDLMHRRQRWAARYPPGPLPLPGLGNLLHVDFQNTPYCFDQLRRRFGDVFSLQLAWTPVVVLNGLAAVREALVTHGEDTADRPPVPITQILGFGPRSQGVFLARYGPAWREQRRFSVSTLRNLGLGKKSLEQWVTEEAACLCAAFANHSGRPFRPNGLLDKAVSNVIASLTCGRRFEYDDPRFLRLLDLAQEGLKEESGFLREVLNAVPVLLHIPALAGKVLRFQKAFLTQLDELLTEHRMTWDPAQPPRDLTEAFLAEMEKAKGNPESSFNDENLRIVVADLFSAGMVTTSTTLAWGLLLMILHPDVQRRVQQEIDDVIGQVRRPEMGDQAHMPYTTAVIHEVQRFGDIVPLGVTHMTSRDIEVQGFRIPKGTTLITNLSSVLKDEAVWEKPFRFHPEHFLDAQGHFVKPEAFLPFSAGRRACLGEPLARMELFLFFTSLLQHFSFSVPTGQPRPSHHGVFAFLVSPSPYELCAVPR
T1 sequence (P33261 whole entry): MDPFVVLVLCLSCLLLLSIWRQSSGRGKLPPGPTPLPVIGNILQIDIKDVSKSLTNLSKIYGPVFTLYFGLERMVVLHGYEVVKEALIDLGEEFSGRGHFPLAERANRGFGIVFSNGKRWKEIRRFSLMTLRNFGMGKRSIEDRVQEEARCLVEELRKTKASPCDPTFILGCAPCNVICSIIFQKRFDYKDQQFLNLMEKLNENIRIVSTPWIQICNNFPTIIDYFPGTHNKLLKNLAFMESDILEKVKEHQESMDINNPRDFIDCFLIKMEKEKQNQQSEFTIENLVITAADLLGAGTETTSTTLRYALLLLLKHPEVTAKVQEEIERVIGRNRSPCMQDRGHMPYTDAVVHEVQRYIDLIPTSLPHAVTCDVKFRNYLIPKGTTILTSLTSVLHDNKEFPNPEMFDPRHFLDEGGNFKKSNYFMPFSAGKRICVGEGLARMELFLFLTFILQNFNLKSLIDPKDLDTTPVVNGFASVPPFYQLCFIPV

Consider `CN1CCN(c2ncc(S(=O)(=O)N3CCN(Cc4cncn4CCOc4ccc(F)cn4)CC3)s2)CC1` [Compound 33], for which the IC50 against CYP2C19 is 7510 nM; on CYP2D6, 4800 nM. The IC50 at 8 min on CYP3A4 amounted to 2.3 nM.
The matching figures for `CC(c1cncn1[C@H](C)c1ccc(F)cc1)N1CCN(S(=O)(=O)c2cnc(N3CCN4C[C@H](O)C[C@H]4C3)s2)CC1` (stereo partly drawn) [Compound 37]: over 10000 nM, over 10000 nM and 4.1 nM.
Consider `C[C@H](c1ccc(F)cc1)n1cncc1C1C(=O)OCC2CN(S(=O)(=O)c3cnc(Nc4ccc(C(F)(F)F)cn4)s3)CCN21` (stereo partly drawn) [Compound 39], for which the figures for the IC50 against CYP2C19 and against CYP2D6 were 2650 nM and 2180 nM, respectively. Also, the IC50 at 8 min on CYP3A4 is 8 nM.
The matching figures for `C[C@H](c1ccc(F)cc1)n1cncc1C1COCC2CN(S(=O)(=O)c3cnc(Nc4ccccn4)s3)CCN21` (stereo partly drawn) [Compound 40]: 3050 nM, 2890 nM and 0.8 nM.
The corresponding values for `C[C@H](c1ccc(F)cc1)n1cnnc1CN1CCN(S(=O)(=O)c2cnc(N3CCN4C[C@H](O)C[C@H]4C3)s2)CC1` [Compound 42] are over 10000 nM, over 10000 nM and 32 nM.

These data come from patent US20140005103A1, “SULFONAMIDE DERIVATIVES AND METHODS OF USE THEREOF FOR IMPROVING THE PHARMACOKINETICS OF A DRUG” (Merck, Sharp & Dohme Corp., priority 2012, published 2014).
